Counter-ions that a name gives are not always drawn. Like-named read-outs stand apart in the source and are kept apart here.

The test system of one data set is DU-145. The data set is described as follows: NCI screen antiproliferative activity, prostate DU-145. On the procedure: (§1) Cells of approximately 60 different human cancer cell lines were incubated for 48 h with five 10-fold dilutions of the tested compounds starting from 100 μM and then treated with sulforhodamine B dye. The ratios of recorded optical densities relative to that of the control were plotted as a function of the common logarithm of the tested compound concentrations. […] The GI50 and the mean graph midpoint (MGM) values of the prepared indenoisoquinolines in selected cell lines are presented in Table I.
(§2) The antiproliferative activity of each compound was determined in the National Cancer Institute (NCI) screen as described above. Cells of approximately 60 different human cancer cell lines were incubated for 48 h with five 10-fold dilutions of the test compounds starting from 100 μM, and then treated with sulforhodamine B dye. The ratios of recorded optical densities relative to those of the control were plotted as a function of the common logarithm of the tested compound concentrations. […] The GI50 and the mean graph midpoint (MGM) values of the prepared (aza)indeno-isoquinolines in selected cell lines are presented in Table 2.

The next data set concerns SN12C. The data set is described as follows: NCI screen antiproliferative activity, renal SN12C. On the procedure: as §1, §2
The subject of the next data set is MCF7. The data set is described as follows: NCI screen antiproliferative activity, breast MCF7. On the procedure:
as §1, §2

The subject of another data set is SF-539. Kind of data set: NCI screen antiproliferative activity, CNS SF-539. On the procedure: as §1, §2
The test system of another data set is HCT-116. Kind of data set: NCI screen antiproliferative activity, colon HCT-116. On the procedure:
as §1, §2

The next data set concerns the target T1, human recombinant Top1 (Homo sapiens, UniProt P11387).
T1 construct: made in house
T1 sequence (P11387 1-765): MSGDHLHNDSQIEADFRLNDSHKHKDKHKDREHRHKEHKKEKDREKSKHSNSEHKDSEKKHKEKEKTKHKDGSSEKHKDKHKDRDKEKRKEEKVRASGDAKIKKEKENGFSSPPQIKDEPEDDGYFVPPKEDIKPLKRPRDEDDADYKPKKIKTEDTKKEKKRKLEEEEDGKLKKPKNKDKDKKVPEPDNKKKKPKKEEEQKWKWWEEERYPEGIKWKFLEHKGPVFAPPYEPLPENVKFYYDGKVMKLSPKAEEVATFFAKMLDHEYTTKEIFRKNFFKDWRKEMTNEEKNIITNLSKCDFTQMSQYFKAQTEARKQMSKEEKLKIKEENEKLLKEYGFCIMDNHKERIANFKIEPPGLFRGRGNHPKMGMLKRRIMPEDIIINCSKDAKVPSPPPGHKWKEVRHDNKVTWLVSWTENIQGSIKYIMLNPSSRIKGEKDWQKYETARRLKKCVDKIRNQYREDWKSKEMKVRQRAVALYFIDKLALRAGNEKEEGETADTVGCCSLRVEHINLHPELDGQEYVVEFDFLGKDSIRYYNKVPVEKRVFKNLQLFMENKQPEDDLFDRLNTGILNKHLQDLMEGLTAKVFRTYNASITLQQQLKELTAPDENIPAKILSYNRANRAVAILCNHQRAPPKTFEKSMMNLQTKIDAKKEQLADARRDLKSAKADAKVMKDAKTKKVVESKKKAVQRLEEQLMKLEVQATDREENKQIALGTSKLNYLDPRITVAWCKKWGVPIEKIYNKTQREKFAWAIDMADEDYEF
Kind of data set: Top1-mediated DNA cleavage assay. The format is biochemical. As to conditions: semiquantitative, relative to compounds 1 and 2. On the procedure: Unincorporated [^32P]dGTP was removed using mini Quick […] columns (Roche, Indianapolis, Ind.), and the eluate containing the […] DNA substrate was collected. […] Aliquots of each reaction mixture were subjected to 20% denaturing PAGE. […] The DNA fragments were separated on a denaturing gel. […] All of the target compounds were tested for induction of DNA damage in Top1-mediated DNA cleavage assays, as described above.

For data set [1], the system named is approximately 60 different human cancer cell lines. The data set is described as follows: NCI screen, mean graph midpoint over all cell lines. The format is cell-based. As to conditions: all human cancer cell lines successfully tested, 48 h. On the procedure:
as §1, §2

The test system of a further data set is OVCAR-3. Kind of data set: NCI screen antiproliferative activity, ovarian OVCAR-3. On the procedure:
as §1, §2

Another data set deals with HOP-62. The data set is described as follows: NCI screen antiproliferative activity, lung HOP-62. On the procedure:
as §1, §2

The subject of the next data set is UACC-62. Kind of data set: NCI screen antiproliferative activity, melanoma UACC-62. On the procedure: as §1, §2

With `COc1cc2c3c(n(CCCN4CCOCC4)c(=O)c2cc1OC)-c1ncccc1C3=O` [Compound 22, 7-Aza-5,6-d hydro-6-(3-morpholinopropyl)-2,3-dimethoxy-5,11-dioxo-11H-indeno[1,2-c]isoquinolineHydrochloride], the concentration for 50% growth inhibition (GI50) in the data set on DU-145 came out at 310 nM; with SN12C, 520 nM; in the data set on MCF7, 52 nM; in the data set on SF-539, 290 nM; with HCT-116 it was 220 nM; with OVCAR-3 it was 370 nM. Further, the 50% growth inhibitory concentration (GI50) in the data set with HOP-62 amounted to 300 nM. The “Top1 Cleavage” value on human recombinant Top1 (Table 1) and at human recombinant Top1 (Table 2) was “++” each time. Further, the “MGM (mean graph midpoint for growth inhibition)” value in data set [1] (Table 1) and in data set [1] (Table 2) was 0.30 µM in each case.

`COc1cnc2c(c1)C(=O)c1c-2n(CCCN(C)C)c(=O)c2cc([N+](=O)[O-])ccc12` [Compound 65, 7-Aza-5,6-dihydro-6-(3-dimethylaminopropyl)-9-methoxy-3-nitro-5,11-dioxo-11H-indeno[1,2-c]isoquinoline]: the concentration for 50% growth inhibition (GI50) in the data set on DU-145 turned out to be 51 nM; in the data set on SN12C, 57 nM; in the data set with UACC-62 it was 52 nM; in the data set with MCF7, 24 nM; with SF-539, 78 nM; with HCT-116, 74 nM. The 50% growth inhibitory concentration (GI50) in the data set with OVCAR-3 turned out to be 140 nM; with HOP-62, 54 nM. In addition, the “Top1 Cleavage” value on human recombinant Top1 (Table 2) is given as “+++”. Further, the “MGM (mean graph midpoint for growth inhibition)” value in data set [1] (Table 2) worked out at 0.11 µM.

For the compound `COc1cnc2c(c1)C(=O)c1c-2n(CCCN2CCOCC2)c(=O)c2cc([N+](=O)[O-])ccc12` [Compound 66, 7-Aza-5,6-dihydro-6-(3-(4-morpholino)propyl)-9-methoxy-3-nitro-5,11-dioxo-11H-indeno[1,2-c]isoquinoline], the GI50 in the data set with DU-145 was 40 nM; with SN12C it was 43 nM; in the data set on UACC-62, 40 nM; with MCF7, 20 nM; in the data set with SF-539 it was 35 nM; in the data set on HCT-116, 50 nM. For the same compound, the results for the GI50 with OVCAR-3 and in the data set on HOP-62 were 110 nM and 51 nM, respectively. Besides, the “Top1 Cleavage” value at human recombinant Top1 (Table 2) is listed as “++++ (++++ similar activity as 1 μM 1.)”. Also, the “MGM (mean graph midpoint for growth inhibition)” value in [1] (Table 2) stood at 0.085 µM.

In the case of `CN(C)CCCn1c2c(c3ccc([N+](=O)[O-])cc3c1=O)C(=O)c1cccnc1-2.Cl` [Compound 20, 7-Aza-5,6-dihydro-6-(3-dimethylaminopropyl)-3-nitro-5,11-dioxo-11H-indeno[1,2-c]isoquinoline Hydrochloride], the 50% growth inhibitory concentration (GI50) with DU-145 worked out at 930 nM; with SN12C, 1000 nM; in the data set on UACC-62, 3310 nM; in the data set on MCF7, 360 nM; in the data set on SF-539, 2690 nM; in the data set with HCT-116, 440 nM. In addition, the GI50 in the data set on OVCAR-3 amounted to 2290 nM; in the data set with HOP-62, 2350 nM. Further, the “MGM (mean graph midpoint for growth inhibition)” value in [1] (Table 1) turned out to be 1.86 µM.

Turning to `Cl.O=C1c2cccnc2-c2c1c1ccccc1c(=O)n2CCCNCCO` [Compound 30, 7-Aza-5,6-dihydro-6-(3-(2-hydroxyethylamino)propyl)-5,11-dioxo-11H-indeno[1,2-c]isoquinoline Hydrochloride], the 50% growth inhibitory concentration (GI50) with DU-145 is 410 nM; in the data set with SN12C, 760 nM; in the data set on UACC-62, 3090 nM; in the data set on MCF7, 480 nM; in the data set with SF-539, 870 nM; in the data set on HCT-116, 300 nM. Also, the figures for the 50% growth inhibitory concentration (GI50) in the data set on OVCAR-3 and in the data set with HOP-62 were 1550 nM and 1410 nM, respectively. In addition, the “Top1 Cleavage” value on human recombinant Top1 (Table 1) was “+ (+ weak activity;)”. The “MGM (mean graph midpoint for growth inhibition)” value in [1] (Table 1) was 1.29 µM.

As to `COc1cc2c3c(n(CCCN(C)C)c(=O)c2cc1OC)-c1ccccc1C3=O` [Compound 34, reference compound], the GI50 with DU-145 (Homo sapiens, DU-145, 48 h, read-out: cytotoxicity (GI50) prostate DU-145, 48 h, sulforhodamine B, single determination, Table 1) was found to be 4470 nM; with SN12C (Homo sapiens, SN12C, 48 h, read-out: cytotoxicity (GI50) renal SN12C, 48 h, sulforhodamine B, single determination, Table 1), 11000 nM; in the data set on UACC-62 (Homo sapiens, UACC-62, 48 h, read-out: cytotoxicity (GI50) melanoma UACC-62, 48 h, sulforhodamine B, single determination, Table 1), 6610 nM; in the data set with MCF7 (Homo sapiens, MCF7, 48 h, read-out: cytotoxicity (GI50) breast MCF7, 48 h, sulforhodamine B, single determination, Table 1) it was 6170 nM; in the data set on SF-539 (Homo sapiens, 48 h, read-out: cytotoxicity (GI50) CNS SF-539, 48 h, sulforhodamine B, single determination, Table 1) it was 6170 nM; with HCT-116 (Homo sapiens, HCT-116, 48 h, read-out: cytotoxicity (GI50) colon HCT-116, 48 h, sulforhodamine B, single determination, Table 1), 2450 nM. In addition, the GI50 amounted to 5890 nM with OVCAR-3 (Homo sapiens, OVCAR-3, 48 h, read-out: cytotoxicity (GI50) ovarian OVCAR-3, 48 h, sulforhodamine B, single determination, Table 1) and 11500 nM with HOP-62 (Homo sapiens, HOP-62, 48 h, read-out: cytotoxicity (GI50) lung HOP-62, 48 h, sulforhodamine B, single determination, Table 1). Moreover, the “MGM (mean graph midpoint for growth inhibition)” value in data set [1] (Table 1) came to 6.17 µM.

As to `COc1cc2c3c(n(CCCN4CCOCC4)c(=O)c2cc1OC)-c1cnccc1C3=O.O=C(O)C(F)(F)F` [Compound 118, 8-Aza-5,6-dihydro-6-(3-(4-morpholino)propyl)-2,3-dimethoxy-5,11-dioxo-11H-indeno[1,2-c]isoquinoline Trifluoroacetate], the GI50 in the data set with DU-145 worked out at 24000 nM; in the data set with SN12C it was 16000 nM; with UACC-62, 48000 nM; with MCF7 it was 4100 nM; in the data set on SF-539, 40000 nM; with HCT-116, 2500 nM. Moreover, the 50% growth inhibitory concentration (GI50) came out at 24000 nM in the data set with OVCAR-3 and 6500 nM with HOP-62. Besides, the “Top1 Cleavage” value on human recombinant Top1 (Table 2) is “++”. Besides, the “MGM (mean graph midpoint for growth inhibition)” value in data set [1] (Table 2) was 16 µM.

Regarding `O=C1c2cccnc2-c2c1c1ccccc1c(=O)n2CCCn1ccnc1` [Compound 28, 7-Aza-5,6-dihydro-6-(3-(1H-imidazol-1-yl)propyl)-5,11-dioxo-11H-indeno[1,2-c]isoquinoline], the concentration for 50% growth inhibition (GI50) in the data set on DU-145 is 2880 nM; in the data set on SN12C it was 3720 nM; with UACC-62 it was 35500 nM; in the data set with MCF7, 3390 nM; in the data set on SF-539, 5130 nM; with HCT-116, 1200 nM. Moreover, the values for the GI50 in the data set on OVCAR-3 and with HOP-62 were 8710 nM and 7240 nM, respectively. Besides, the “Top1 Cleavage” value at human recombinant Top1 (Table 1) is reported as “++”. The “MGM (mean graph midpoint for growth inhibition)” value in data set [1] (Table 1) was determined as 7.24 µM.

Regarding `COc1cc2c3c(n(CCCN(C)C)c(=O)c2cc1OC)-c1ccncc1C3=O.O=C(O)C(F)(F)F` [Compound 127, 9-Aza-5,6-dihydro-6-(3-dimethylaminopropyl)-2,3-dimethoxy-5,11-dioxo-11H-indeno[1,2-]isoquinoline Trifluoroacetate], the GI50 is 2900 nM in the data set on DU-145; 8500 nM with SN12C; > 100000 nM in the data set on UACC-62; 3900 nM in the data set on MCF7; 12000 nM in the data set with SF-539; 620 nM in the data set on HCT-116. The GI50 in the data set on OVCAR-3 stood at 7400 nM; in the data set on HOP-62, 6500 nM. For the same compound, on human recombinant Top1 (Table 2), the “Top1 Cleavage” value is “+ (+ weak activity;)”. For the same compound, the “MGM (mean graph midpoint for growth inhibition)” value in [1] (Table 2) came out at 6.5 µM.

In the case of `Cl.O=C1c2cccnc2-c2c1c1ccccc1c(=O)n2CCCN1CCOCC1` [Compound 21, 7-Aza-5,6-dihydro-6-(3-morpholinopropyl)-5,11-dioxo-11H-indeno[1,2-c]iso-quinoline Hydrochloride], the concentration for 50% growth inhibition (GI50) in the data set with DU-145 was 3550 nM; in the data set with SN12C it was 5370 nM; with UACC-62, > 100000 nM; in the data set with MCF7, 2750 nM; with SF-539, 5620 nM; in the data set on HCT-116, 1860 nM. Further, the GI50 in the data set with OVCAR-3 was 28200 nM; in the data set on HOP-62, 35500 nM. Moreover, the “MGM (mean graph midpoint for growth inhibition)” value in data set [1] (Table 1) is 15.49 µM.

These data come from US8686146B2, “Azaindenoisoquinoline topoisomerase I inhibitors” (Purdue Research Foundation, priority 2012, dated 2014).
